From ChEMBL document CHEMBL1137073, “Development of irreversible diphenyl phosphonate inhibitors for urokinase plasminogen activator” (J Med Chem, 2004)

Key:
[1] = target: T1, Urokinase-type plasminogen activator (Homo sapiens, UniProt P00749); experiment: (§1) Inhibitory activity against Urokinase-type plasminogen activator
Plasminogen [2] = target: T2, Plasminogen (Homo sapiens, UniProt P00747); experiment: Inhibitory activity against plasmin
[3] = target: T3, Tissue-type plasminogen activator (Homo sapiens, UniProt P00750); settings: at 250 µM
Target sequence in this assay (P00750 36-562 limits assumed): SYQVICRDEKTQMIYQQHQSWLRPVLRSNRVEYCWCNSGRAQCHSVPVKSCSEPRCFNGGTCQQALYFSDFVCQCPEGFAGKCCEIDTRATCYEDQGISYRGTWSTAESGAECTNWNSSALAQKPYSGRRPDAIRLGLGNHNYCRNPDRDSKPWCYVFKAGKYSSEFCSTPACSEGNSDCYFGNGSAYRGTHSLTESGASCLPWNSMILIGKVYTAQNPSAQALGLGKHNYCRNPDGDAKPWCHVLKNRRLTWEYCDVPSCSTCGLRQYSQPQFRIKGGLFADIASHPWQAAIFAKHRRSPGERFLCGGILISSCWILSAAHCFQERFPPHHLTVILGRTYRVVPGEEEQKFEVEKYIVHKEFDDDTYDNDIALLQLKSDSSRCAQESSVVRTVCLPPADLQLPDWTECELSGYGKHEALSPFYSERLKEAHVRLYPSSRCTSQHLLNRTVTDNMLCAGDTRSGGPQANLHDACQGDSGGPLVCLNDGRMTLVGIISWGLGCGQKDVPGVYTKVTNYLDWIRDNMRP
Description: (§2) Inhibitory activity against Tissue type plasminogen activator at a concentration of 250 uM

Coagulation factor X [4] = target: T4, Coagulation factor X (Homo sapiens, UniProt P00742); settings: at 250 µM
T4 sequence (P00742 41-179 limits assumed): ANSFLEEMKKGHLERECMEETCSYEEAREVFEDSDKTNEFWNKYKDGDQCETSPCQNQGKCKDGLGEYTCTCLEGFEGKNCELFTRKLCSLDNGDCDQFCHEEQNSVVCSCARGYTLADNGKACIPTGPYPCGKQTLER
T4 sequence (P00742 235-488 limits assumed): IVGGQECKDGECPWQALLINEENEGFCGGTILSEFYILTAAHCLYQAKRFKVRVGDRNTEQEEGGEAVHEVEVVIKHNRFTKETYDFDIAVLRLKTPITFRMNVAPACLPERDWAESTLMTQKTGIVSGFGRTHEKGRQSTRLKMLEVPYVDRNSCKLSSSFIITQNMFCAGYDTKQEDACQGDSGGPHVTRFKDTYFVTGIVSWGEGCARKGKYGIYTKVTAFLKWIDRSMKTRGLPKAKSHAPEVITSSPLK
Description: Inhibitory activity against Coagulation factor Xa at a concentration of 250 uM

[5] = target: T1, Urokinase-type plasminogen activator; experiment: as §1; remark: listed apart in the source
Prothrombin [6] = target: T5, Prothrombin (Homo sapiens, UniProt P00734); settings: at 250 µM
Description: Inhibitory activity against thrombin at a concentration of 250 uM

[7] = target: T3, Tissue-type plasminogen activator; experiment: Inhibitory activity against Tissue type plasminogen activator at a concentration of
Target sequence in this assay (P00750 36-562 limits assumed): as the sequence (P00750 36-562 limits assumed) above

Plasminogen [8] = target: T2, Plasminogen; settings: at 250 µM
Description: Inhibitory activity against plasmin at a concentration of 250 uM

Prothrombin [9] = target: T5, Prothrombin; experiment: Inhibitory activity against thrombin at a concentration of 2.5 uM
[10] = target: T3, Tissue-type plasminogen activator; settings: at 250 µM; remark: listed apart in the source
Target sequence in this assay (P00750 36-562 limits assumed): as above
Description: as §2

Prothrombin [11] = target: T5, Prothrombin; experiment: Inhibitory activity against thrombin
Coagulation factor X [12] = target: T4, Coagulation factor X; experiment: Inhibitory activity against Coagulation factor Xa
[13] = target: T3, Tissue-type plasminogen activator; experiment: Inhibitory activity against Tissue type plasminogen activator at a concentration of 2.5 uM
Target sequence in this assay (P00750 36-562 limits assumed): as above

[14] = target: T3, Tissue-type plasminogen activator; experiment: Inhibitory activity against Tissue type plasminogen activator
Target sequence in this assay (P00750 whole entry): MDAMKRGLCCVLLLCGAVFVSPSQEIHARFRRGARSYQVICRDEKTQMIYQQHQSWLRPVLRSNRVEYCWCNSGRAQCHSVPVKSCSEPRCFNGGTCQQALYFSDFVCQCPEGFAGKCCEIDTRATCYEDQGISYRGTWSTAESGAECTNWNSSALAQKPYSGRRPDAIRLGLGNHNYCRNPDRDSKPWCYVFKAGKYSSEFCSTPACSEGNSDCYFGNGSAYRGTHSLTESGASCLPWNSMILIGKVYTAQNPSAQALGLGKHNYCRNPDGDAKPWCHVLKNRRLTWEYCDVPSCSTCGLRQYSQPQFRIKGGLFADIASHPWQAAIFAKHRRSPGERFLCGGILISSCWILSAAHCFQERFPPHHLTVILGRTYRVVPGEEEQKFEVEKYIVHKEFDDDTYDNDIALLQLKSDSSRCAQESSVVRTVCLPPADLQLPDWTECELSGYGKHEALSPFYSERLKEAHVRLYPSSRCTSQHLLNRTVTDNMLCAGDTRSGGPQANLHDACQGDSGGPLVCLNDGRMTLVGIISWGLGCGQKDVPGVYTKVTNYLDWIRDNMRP

T2 sequence (P00747 97-580 limits assumed): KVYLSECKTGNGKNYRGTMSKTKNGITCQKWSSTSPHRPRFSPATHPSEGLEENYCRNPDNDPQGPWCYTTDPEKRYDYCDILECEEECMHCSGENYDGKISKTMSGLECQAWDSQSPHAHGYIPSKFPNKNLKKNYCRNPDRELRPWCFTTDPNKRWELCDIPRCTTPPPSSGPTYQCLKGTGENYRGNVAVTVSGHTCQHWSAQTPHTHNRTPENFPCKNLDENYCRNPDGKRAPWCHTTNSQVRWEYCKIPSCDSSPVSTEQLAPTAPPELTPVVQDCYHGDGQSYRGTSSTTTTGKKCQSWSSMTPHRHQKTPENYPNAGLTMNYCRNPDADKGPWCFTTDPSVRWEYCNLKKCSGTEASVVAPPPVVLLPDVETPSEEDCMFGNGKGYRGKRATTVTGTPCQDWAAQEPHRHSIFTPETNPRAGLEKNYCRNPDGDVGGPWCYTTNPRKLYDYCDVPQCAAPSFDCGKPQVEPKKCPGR
T2 sequence (P00747 581-810 limits assumed): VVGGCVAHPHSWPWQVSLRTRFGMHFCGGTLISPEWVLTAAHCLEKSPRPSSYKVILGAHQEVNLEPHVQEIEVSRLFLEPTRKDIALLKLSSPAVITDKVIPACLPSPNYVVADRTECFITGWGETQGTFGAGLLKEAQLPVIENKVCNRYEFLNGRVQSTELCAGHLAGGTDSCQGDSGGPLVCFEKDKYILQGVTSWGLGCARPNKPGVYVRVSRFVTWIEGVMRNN

| Compound | IC50 [1] [µM] | inhibition (Coagulation factor X [4]) [%] | K app [5] [M⁻¹ s⁻¹] | inhibition (Plasminogen [8]) [%] | other results |
| --- | --- | --- | --- | --- | --- |
| C[C@H](NC(=O)[C@@H](CO)NC(=O)OCc1ccccc1)C(=O)NC(CCNC(=N)N)P(=O)(Oc1ccccc1)Oc1ccccc1 (some centres undefined) | 4.1 |  |  |  |  |
| C[C@H](NC(=O)[C@@H](CO)NC(=O)OCc1ccccc1)C(=O)NC([C@H]1CC[C@H](CN=C(N)N)CC1)P(=O)(Oc1ccccc1)Oc1ccccc1 (some centres undefined) | 1.1 | 77 | 1.4 |  | IC50 (Plasminogen [2]): 32.2 µM; inhibition [3]: 41%; inhibition (Prothrombin [6]): 40% |
| C[C@H](NC(=O)[C@@H](CO)NC(=O)OCc1ccccc1)C(=O)NC(c1ccc(NC(=N)N)cc1)P(=O)(Oc1ccccc1)Oc1ccccc1 (some centres undefined) |  | 56 | 2 | 46 | inhibition [7]: 53%; inhibition (Prothrombin [9]): 44% |
| C[C@H](NC(=O)[C@@H](CO)NC(=O)OCc1ccccc1)C(=O)NC(CCN=C(N)N)P(=O)(Oc1ccccc1)Oc1ccccc1 (some centres undefined) |  | 6 | 1.4 | 15 | inhibition [10]: 46%; inhibition (Prothrombin [9]): 10%; inhibition (Prothrombin [6]): 96% |
| C[C@H](NC(=O)[C@@H](CO)NC(=O)OCc1ccccc1)C(=O)NC(CCCNC(=N)N)P(=O)(Oc1ccccc1)Oc1ccccc1 (some centres undefined) | 0.061 |  |  |  | IC50 (Plasminogen [2]): 10.8 µM; IC50 (Prothrombin [11]): 0.5 µM; IC50 (Coagulation factor X [12]): 65 µM |
| C[C@H](NC(=O)[C@@H](CO)NC(=O)OCc1ccccc1)C(=O)NC(CCCN=C(N)N)P(=O)(Oc1ccccc1)Oc1ccccc1 (some centres undefined) |  |  |  |  | inhibition [13]: 50% |
| C[C@H](NC(=O)[C@@H](CO)NC(=O)OCc1ccccc1)C(=O)NC(c1ccc(CN=C(N)N)cc1)P(=O)(Oc1ccccc1)Oc1ccccc1 (some centres undefined) | 8.4 | 44 | 3.3 | 45 | inhibition [3]: 43%; inhibition (Prothrombin [6]): 20% |
| C[C@H](NC(=O)[C@@H](CO)NC(=O)OCc1ccccc1)C(=O)NC(Cc1ccc(N=C(N)N)cc1)P(=O)(Oc1ccccc1)Oc1ccccc1 (some centres undefined) | 0.057 |  |  |  | IC50 (Plasminogen [2]): 22 µM; IC50 (Prothrombin [11]): 30 µM; IC50 [14]: 14 µM; IC50 (Coagulation factor X [12]): 79 µM |
| C[C@H](NC(=O)[C@@H](CO)NC(=O)OCc1ccccc1)C(=O)NC(c1ccc(N=C(N)N)cc1)P(=O)(Oc1ccccc1)Oc1ccccc1 (some centres undefined) | 1.6 |  |  |  |  |
| C[C@H](NC(=O)[C@@H](CO)NC(=O)OCc1ccccc1)C(=O)NC(Cc1ccc(NC(=N)N)cc1)P(=O)(Oc1ccccc1)Oc1ccccc1 (some centres undefined) |  |  | 6.7 |  |  |
| N=C(N)NC(=O)c1nc(Cl)c(N)nc1N [AMILORIDE] |  | 17 |  | 23 | IC50 (Prothrombin [11]): > 250 µM; IC50 [14]: > 250 µM |
| C[C@H](NC(=O)[C@@H](CO)NC(=O)OCc1ccccc1)C(=O)NC(CCCCN=C(N)N)P(=O)(Oc1ccccc1)Oc1ccccc1 (some centres undefined) | 0.25 |  | 3.8 |  | inhibition [13]: 19%; inhibition (Prothrombin [9]): 12% |
